# Where two headings read alike, the source gives them in different places.
# How the values were obtained:
# [1] = Cutaneous conversion of VCV to ACV in contact with skin (SC and dermis); format: in vitro ADME, porcine
# Experimental: (§1) The aqueous stability of VCV in the donor formulations was investigated by periodic sampling of solutions (2 and 10 mM in water with 15 mM acetaminophen) over a period of 44 hours. In addition, the impact of an electrical current (0.34 mA) on this stability was examined over the same period. The chemical hydrolysis of VCV was also investigated in the presence of PBS pH 7.4. The cutaneous conversion of VCV to ACV via hydrolytic cleavage of the ester bond was verified as follows. Cells were assembled as for an iontophoresis experiment. A 100 μM solution of VCV in PBS pH 7.4 was placed in all the cell compartments and left in contact with the skin (SC and dermis) for 4 hours. The compartments were assayed for ACV and VCV immediately afterwards.
# [2] = pKa and ionization state of ACV and VCV; format: physicochemical; conditions: for ionization state in the donor phase: unbuffered formulations, ACV pH 6.3, VCV pH 5.7
# [3] = human skin, 5% w/w (220 mM) ACV ointment, passive; cited from earlier work
# [4] = guinea pig skin, 5% w/w (220 mM) ACV ointment, passive; cited from earlier work
# [5] = pH 7.4, 25°; cited from earlier work
# [6] = cited from earlier work
# [7] = calculated (Denny, 2003); cited from earlier work
# [8] = topical 220 mM ACV formulation, rabbits in vivo; cited from earlier work
# [9] = cited from earlier work; remark: listed apart in the source
# [10] = Iontophoresis across porcine skin in vitro, 3-compartment cells, acetaminophen as electroosmosis marker
# Experimental: Porcine ear skin, which is a well-accepted model for human skin (Dick and Scott, 1992; Sekkat et al., 2002), was used in these studies. Porcine ears were obtained from a local abattoir (Société d'Exploitation d'Abbatage, Annecy, France) a few hours after the sacrifice of the animals. The excised skin was then dermatomed (˜750 μm) on the same day and stored at −20° C. for a maximum of two months.
# Iontophoresis was performed using vertical 3-compartment cells (FIG. 2). The skin was placed between two half-cells: the upper half, in contact with the SC, comprised two electrode/donor compartments, while the lower receiver compartment was in contact with the dermis. A flow-through system circulated phosphate-buffered normal saline (PBS: 16.8 mM Na2HPO4, 1.4 mM KH2PO4 and 136.9 mM NaCl; pH 7.4) through the receiver chamber (volume 4.7 mL) at a rate of 3 mL/h. Ag/AgCl electrodes were used throughout the study. The skin was allowed to equilibrate for one hour prior to the iontophoresis experiment. In order to reduce competition from Na^+ ions present in the donor, and thus to increase the permeation of VCV, most experiments were performed using a salt bridge assembly. This strategy consists of physically separating the anodal chamber (Ag electrode immersed in PBS pH 7.4) from the donor compartment (drug solution in contact with the SC) and employing a salt bridge (prepared by filling a 12 cm tubing with a warm aqueous solution of 3% agarose and 0.1 M NaCl and then allowed to cool) to electrically connect the two chambers. […] For control experiments without the salt bridge, the anodal compartment contained 1 mL of 10 mM VCV.HCl in PBS pH 7.4. The cathodal compartment contained PBS pH 7.4 in all the experiments. A constant current of 0.34 mA was applied for 7 hours (equivalent to a current density of 0.5 mA/cm^2).
# Acetaminophen (ACE, 15 mM) was included in the donor solution as a marker for electroosmotic flow. Being a small, polar and neutral molecule, it is transported mainly by convective solvent flow during iontophoresis. Therefore, its flux can be used to determine the contribution of electroosmosis to the total iontophoretic flux,
# where JEO represents the contribution of electroosmosis (EO) to delivery, vA→C is the convective solvent flow from the anode to cathode, and CD is the donor concentration of the drug.
# The experiments were performed in sextuplicate, except for passive delivery (n=3), using the skin of as many different animals as possible. Samples were collected hourly and analyzed by high pressure liquid chromatography (HPLC). The HPLC system consisted of a 600 E Controller pump, an Autosampler Injector 717-plus, an In Line Degasser, and a UV 2487 dual λ Detector (Waters, Saint-Quentin Yvelines, France). The separation was performed on a Nucleosil® 100-5 C18 Nautilus column (L: 125 mm; ID: 4.6 mm; Macherey-Nagel, Hoerdt, France) with a 99:1 mixture of 0.1% trifluoroacetic acid (TFA) in water (pH 2.5): MeCN. The flow rate was 1 mL/min, the temperature was adjusted to 30° C., and 50 μL of sample were injected.
# The iontophoretic flux (JTOT) of a charged species is considered to be the sum of two separate transport processes—electromigration (JEM) and electroosmosis (JEO), assuming negligible passive skin permeability (Sage Jr., 1995):
# JTOT,VCV=JEM,VCV+JEO,VCV (equation 2)
# Briefly, electromigration occurs as a result of increased molecular transport in the presence of an applied electric field, whereas electroosmosis refers to transport mediated by the bulk solvent flow across the skin (in the anode-to-cathode direction) due to the skin's permselectivity for cations under physiological conditions.
# [11] = Aqueous stability of VCV in donor formulations and in PBS pH 7.4; format: physicochemical
# Experimental: as §1
# [12] = iontophoresis, rabbit skin; cited from earlier work
compound,measurement,setting,value
"Nc1nc2c(ncn2COCCO)c(=O)[nH]1 [ACV, acyclovir]","stability in contact with the skin, donor and receptor chambers","[1]; 100 μM, 4 hours, SC and dermis",stable
same,ionization state in the donor phase,[2],effectively uncharged
same,in vitro flux,[3],0.24 nmol/cm^2/h
same,in vitro flux,[4],0.21 nmol/cm^2/h
same,aqueous solubility,[5],1.3 mg/mL
same,donor concentration-normalized flux,"[6]; human skin, physiological pH, iontophoresis",0.0027 cm/h
same,epidermal concentrations,[6]; iontophoretic administration across human skin,~80 µg/mL
same,calculated log P and log D values,[7],−1.76
same,dermal concentrations (microdialysis),[8],below the limit of detection
same,ionized fraction,[9]; pH 3.0,20%
same,ionized fraction,[9]; pH 7.4,2%
same,donor concentration-normalized flux,"[10]; pig, 7 h, 2 mM, pH 6.3",0.0024 cm/h
same,mechanism of iontophoretic transport across the skin,"[10]; unbuffered formulations, ACV pH 6.3, VCV pH 5.7",entirely by EO
"CC(C)[C@H](N)C(=O)OCCOCn1cnc2c(=O)[nH]c(N)nc21 [VCV, valaciclovir]",enzymatic conversion after contact with the SC,"[1]; 100 μM in PBS pH 7.4, 4 hours",not observed
same,hydrolysis after contact with the dermis,"[1]; 100 μM in PBS pH 7.4, 4 hours, receiver (dermal) compartment",completely hydrolyzed to ACV
same,protonated fraction,[2]; physiological pH,~50%
same,ionization state in the donor phase,[2],fully protonated
same,calculated log P and log D values,[7],−0.78
same,prodrug converted to ACV,"[11]; PBS pH 7.4, over 7 hrs",~12%
same,VCV converted into ACV,"[11]; unbuffered aqueous solutions (2 and 10 mM) with acetaminophen, 44 hours, absence of a current",Less than 1%
same,extent of degradation of VCV,"[11]; unbuffered aqueous solutions, presence of a current (0.34 mA), over 7 hours",~1%
same,mechanism of iontophoretic transport across the skin,[10],almost entirely to electromigration (EM)
same,average flux Jt=0-3 h,"[10]; pig, 2 mM",385±158 nmol/cm^2/h
same,average flux Jt=0-3 h,"[10]; pig, 10 mM",479±258 nmol/cm^2/h
same,flux Jt=0-7 h,"[10]; pig, 10 mM",510±219 nmol/cm^2/h
same,amount reaching the receptor as fraction of the applied dose,"[10]; pig, 4 h, 2 mM",50%
same,EM contribution to the total flux,"[10]; pig, 7 h, 10 mM, pH 7.4",73%
same,transport number,"[10]; pig, 7 h, pH 7.4",~0.03
CC12CCC3C(CC=C4CC(OC(=O)CN)CCC43C)C1CCC2=O (centres unmarked) [glycyl ester of DHEA],increase in permeation compared to the parent DHEA,[12],3 fold
